Laboratory results as given in patent publication US20230390247A1, “BIPHENYL PYRROLIDINE AND BIPHENYL DIHYDROIMIDAZOLE DERIVATIVES FOR INHIBITING ACTIVITY OF 5-HT7 SEROTONIN RECEPTOR, AND PHARMACEUTICAL COMPOSITION COMPRISING SAME AS ACTIVE INGREDIENT” (priority 2020, published 2023).

What was measured:
[1] = target: T1, 5-HT7R (Homo sapiens (Human), UniProt P34969); assay: cAMP assay (luminescence-based, GloSensor); format: cell-based; conditions: HEK293 cells transfected with human 5-HT7R and GloSensor-22F
T1 sequence (P34969 whole entry): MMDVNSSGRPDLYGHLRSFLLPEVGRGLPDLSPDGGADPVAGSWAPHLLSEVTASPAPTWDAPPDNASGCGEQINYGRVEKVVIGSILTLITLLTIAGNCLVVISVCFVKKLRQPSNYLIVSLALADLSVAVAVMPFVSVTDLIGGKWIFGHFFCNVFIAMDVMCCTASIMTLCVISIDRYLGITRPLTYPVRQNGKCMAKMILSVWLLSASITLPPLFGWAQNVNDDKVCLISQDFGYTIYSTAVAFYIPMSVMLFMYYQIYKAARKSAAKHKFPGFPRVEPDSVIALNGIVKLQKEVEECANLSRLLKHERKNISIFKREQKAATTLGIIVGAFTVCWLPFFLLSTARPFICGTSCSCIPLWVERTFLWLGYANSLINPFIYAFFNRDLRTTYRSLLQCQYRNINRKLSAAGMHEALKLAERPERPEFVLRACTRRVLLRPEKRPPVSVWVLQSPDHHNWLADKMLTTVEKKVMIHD
Procedure: For luminescence-based cAMP assay, HEK293 cells were cultured on a 150-mm dish. Prior to transfection, the culture medium was replaced from DMEM containing 10% FBS, 100 U/mL penicillin and 100 μg/mL streptomycin to DMEM containing 10% dialyzed FBS, 100 U/mL penicillin and 100 μg/mL streptomycin. 4 hours later, transfection was conducted using 10 μg of a human 5-HT7R plasmid and 10 μg of a GloSensor-22F plasmid (Promega). The transfected cells were prepared on a white, flat, clear-bottom, 384-well plate (Greiner) (15,000 cells/well, 20 μL/well). 6 hours later, after removing the culture medium, the cells were treated with 20 μL of a 3% Glosensor cAMP reagent containing luciferin in a 1×HBSS, […], pH 7.4 buffer. In addition, the compound of each of the examples was prepared at different concentrations in an assay buffer containing 0.1% bovine serum albumin. 30 minutes later, 10 μL of the compound solution was treated to the cells. After measuring luminescence using a Tecan microplate reader (Spark), IC50 value was obtained using the Prism 8.0 program (GraphPad Software).

[2] = target: T1, 5-HT7R; assay: Tango assay (β-arrestin signaling system); format: cell-based; conditions: HTLA cells transfected with 5-HT7R-TCS-tTA construct
Procedure: Tango assay was conducted using HTLA cells in order to investigate the activity of the β-arrestin signaling system. Prior to transfection, the culture medium was replaced from DMEM containing 10% FBS, 100 U/mL penicillin, 100 μg/mL streptomycin, 2 μg/mL puromycin and 100 μg/mL hygromycin B to DMEM containing 10% dialyzed FBS, 100 U/mL penicillin and 100 μg/mL streptomycin. 4 hours later, transfection was conducted using 20 μg of a 5-HT7R-TCS-tTA construct (5-HT7R Tango DNA). The transfected cells were prepared on a white, flat, clear-bottom, 384-well plate (Greiner) (15,000 cells/well, 20 μL/well) using DMEM containing 10% dialyzed FBS, 100 U/mL penicillin and 100 μg/mL streptomycin. 6 hours later, after removing the culture medium, the cells were treated with 10 μL of the compound solution. After culturing for 22 hours and removing the culture medium, the cells were treated with 20 μL of a BrightGlo reagent (Promega) diluted in a 1×HBSS, […], pH 7.4 buffer. After measuring luminescence using a Tecan microplate reader (Spark), IC50 value was obtained using the Prism 8.0 program (GraphPad Software).

| Structure (SMILES) | inhibition at 10 µM [1] [%] | inhibition at 10 µM [2] [%] | IC50 [2] [µM] | IC50 [1] [µM] |
| --- | --- | --- | --- | --- |
| c1ccc(-c2cccc(CN3CCCC3)c2)cc1 [Compound 1, 1-([1,1′-biphenyl]-3-ylmethyl)pyrrolidine] | 42.1 | 17.5 | 22.9 |  |
| Clc1cccc(-c2cccc(CN3CCCC3)c2)c1 [Compound 3, 1-((3′-chloro-[1,1′-biphenyl]-3-yl)methyl)pyrrolidine] | 85.9 | 33.2 |  | 4.88 |
| Clc1ccc(-c2cccc(CN3CCCC3)c2)cc1 [Compound 4, 1-((4′-chloro-[1,1′-biphenyl]-3-yl)methyl)pyrrolidine] | 38.1 | 14.1 |  |  |
| Cc1ccccc1-c1cccc(CN2CCCC2)c1 [Compound 5, 1-((2′-methyl-[1,1′-biphenyl]-3-yl)methyl)pyrrolidine] | 49.5 | 25 |  |  |
| Cc1cccc(-c2cccc(CN3CCCC3)c2)c1 [Compound 6, 1-((3′-methyl-[1,1′-biphenyl]-3-yl)methyl)pyrrolidine] | 38.9 | 22 |  |  |
| Cc1ccc(-c2cccc(CN3CCCC3)c2)cc1 [Compound 7, 1-((4′-methyl-[1,1′-biphenyl]-3-yl)methyl)pyrrolidine] | 32.5 | 20.6 |  |  |
| COc1ccccc1-c1cccc(CN2CCCC2)c1 [Compound 8, 1-((2′-methoxy-[1,1′-biphenyl]-3-yl)methyl)pyrrolidine] | 57.1 | 18 |  |  |
| COc1cccc(-c2cccc(CN3CCCC3)c2)c1 [Compound 9, 1-((3′-methoxy-[1,1′-biphenyl]-3-yl)methyl)pyrrolidine] | 67.2 | 16.7 |  | 6.44 |
| COc1ccc(-c2cccc(CN3CCCC3)c2)cc1 [Compound 10, 1-((4′-methoxy-[1,1′-biphenyl]-3-yl)methyl)pyrrolidine] | 37.9 | 23.1 |  |  |
| COc1cccc(OC)c1-c1cccc(CN2CCCC2)c1 [Compound 11, 1-((2′,6′-dimethoxy-[1,1′-biphenyl]-3-yl)methyl)pyrrolidine] | 32.8 | 5.1 |  |  |
| Clc1ccc(CN2CCCC2)cc1-c1ccccc1 [Compound 12, 1-((6-chloro-[1,1′-biphenyl]-3-yl)methyl)pyrrolidine] | 80.8 | 26.1 |  | 4.89 |
| Clc1ccccc1-c1cc(CN2CCCC2)ccc1Cl [Compound 13, 1-((2′,6-dichloro-[1,1′-biphenyl]-3-yl)methyl)pyrrolidine] | 90.7 | 50.5 |  | 3.2 |
| Clc1cccc(-c2cc(CN3CCCC3)ccc2Cl)c1 [Compound 14, 1-((3′,6-dichloro-[1,1′-biphenyl]-3-yl)methyl)pyrrolidine] | 51.1 | 27.9 |  |  |
| Clc1ccc(-c2cc(CN3CCCC3)ccc2Cl)cc1 [Compound 15, 1-((4′,6-dichloro-[1,1′-biphenyl]-3-yl)methyl)pyrrolidine] | 63.8 | 34.3 |  | 7.15 |
| Cc1ccccc1-c1cc(CN2CCCC2)ccc1Cl [Compound 16, 1-((6-chloro-2′-methyl-[1,1′-biphenyl]-3-yl)methyl)pyrrolidine] | 73.3 | 30.9 |  | 6.42 |
| Cc1cccc(-c2cc(CN3CCCC3)ccc2Cl)c1 [Compound 17, 1-((6-chloro-3′methyl-[1,1′-biphenyl]-3-yl)methyl)pyrrolidine] | 51.8 | 11.4 |  |  |
| Cc1ccc(-c2cc(CN3CCCC3)ccc2Cl)cc1 [Compound 18, 1-((6-chloro-4′methyl-[1,1′-biphenyl]-3-yl)methyl)pyrrolidine] | 73.4 | 21.5 |  | 8.2 |
| COc1ccccc1-c1cc(CN2CCCC2)ccc1Cl [Compound 19, 1-((6-chloro-2′-methoxy-[1,1′-biphenyl]-3-yl)methyl)pyrrolidine] | 51.8 | 19.7 |  |  |

| Structure (SMILES) | inhibition at 10 µM [1] [%] | inhibition at 10 µM [2] [%] | IC50 [2] [µM] | IC50 [1] [µM] |
| --- | --- | --- | --- | --- |
| COc1cccc(-c2cc(CN3CCCC3)ccc2Cl)c1 [Compound 20, 1-((6-chloro-3′methoxy-[1,1′-biphenyl]-3-yl)methyl)pyrrolidine] | 70.1 | 26 |  | 7.48 |
| COc1ccc(-c2cc(CN3CCCC3)ccc2Cl)cc1 [Compound 21, 1-((6-chloro-4′-methoxy-[1,1′-biphenyl]-3-yl)methyl)pyrrolidine] | 44.7 | 18.6 |  |  |
| COc1ccccc1-c1c(Cl)ccc(CN2CCCC2)c1OC [Compound 22, 1-((6-chloro-2,6′-dimethoxy-[1,1′-biphenyl]-3-yl)methyl)pyrrolidine] | 42.7 | 3.3 |  |  |
| Clc1ccccc1-c1cccc(C2=NCCN2)c1 [Compound 24, 2-(2′-chloro-[1,1′-biphenyl]-3-yl)-4,5-dihydro-1H-imidazole] | 47.6 | 36 |  |  |
| Clc1cccc(-c2cccc(C3=NCCN3)c2)c1 [Compound 25, 2-(3′-chloro-[1,1′-biphenyl]-3-yl)-4,5-dihydro-1H-imidazole] | 50.9 | 43.6 | 10.5 |  |
| Clc1ccc(-c2cccc(C3=NCCN3)c2)cc1 [Compound 26, 2-(4′-chloro-[1,1′-biphenyl]-3-yl)-4,5-dihydro-1H-imidazole] | 43 | 23.1 |  |  |
| Cc1ccccc1-c1cccc(C2=NCCN2)c1 [Compound 27, 2-(2′-methyl-[1,1′-biphenyl]-3-yl)-4,5-dihydro-1H-imidazole] | 55.3 | 23 |  |  |
| Cc1cccc(-c2cccc(C3=NCCN3)c2)c1 [Compound 28, 2-(3′-methyl-[1,1′-biphenyl]-3-yl)-4,5-dihydro-1H-imidazole] | 44.6 | 28.8 |  |  |
| Cc1ccc(-c2cccc(C3=NCCN3)c2)cc1 [Compound 29, 2-(4′-methyl-[1,1′-biphenyl]-3-yl)-4,5-dihydro-1H-imidazole] | 35.2 | 17.2 |  |  |
| COc1cccc(-c2cccc(C3=NCCN3)c2)c1 [Compound 31, 2-(3′-methoxy-[1,1′-biphenyl]-3-yl)-4,5-dihydro-1H-imidazole] | 72.5 | 27.8 |  | 5.77 |
| COc1ccc(-c2cccc(C3=NCCN3)c2)cc1 [Compound 32, 2-(4′-methoxy-[1,1′-biphenyl]-3-yl)-4,5-dihydro-1H-imidazole] | 40.8 | 11.9 |  |  |
| COc1cccc(OC)c1-c1cccc(C2=NCCN2)c1 [Compound 33, 2-(2′,6′-dimethoxy-[1,1′-biphenyl]-3-v1)-4 1 5-dihydro-1H-imidazole] | 32.8 | 14 |  |  |
| Clc1ccc(C2=NCCN2)cc1-c1ccccc1 [Compound 34, 2-(6-chloro-[1,1′-biphenyl]-3-yl)-4,5-dihydro-1H-imidazole] | 48.4 | 31.6 |  |  |
| Clc1ccccc1-c1cc(C2=NCCN2)ccc1Cl [Compound 35, 2-(2′,6-dichloro-[1,1′-biphenyl]-3-yl)-4,5-dihydro-1H-imidazole] | 53.8 | 42 | 20.4 |  |
| Clc1cccc(-c2cc(C3=NCCN3)ccc2Cl)c1 [Compound 36, 2-(3′,6-dichloro-[1,1′-biphenyl]-3-yl)-4,5-dihydro-1H-imidazole] | 52.4 | 44.8 | 10 |  |
| Clc1ccc(-c2cc(C3=NCCN3)ccc2Cl)cc1 [Compound 37, 2-(4′,6-dichloro-[1,1′-biphenyl]-3-yl)-4,5-dihydro-1H-imidazole] | 43.3 | 39.6 |  |  |
| Cc1ccccc1-c1cc(C2=NCCN2)ccc1Cl [Compound 38, 2-(6-chloro-2′-methyl-[1,1′-biphenyl]-3-yl)-4,5-dihydro-1H-imidazole] | 51.4 | 31.7 |  |  |
| Cc1cccc(-c2cc(C3=NCCN3)ccc2Cl)c1 [Compound 39, 2-(6-chloro-3′-methyl-[1,1′-biphenyl]-3-yl)-4,5-dihydro-1H-imidazole] | 48.1 | 27 |  |  |
